Entries after “also recorded” stand apart in the source; their conditions may differ.
Legend:
[1] = test system: cMyc site within the RANKL promoter in LNCaP cells; assay: ChIP analysis (quantitative real-time PCR) of cMyc binding to the RANKL promoter; format: cell-based, human
[2] = test system: ARCaPE-RANKL cells; assay: Soft agar (anchorage-independent) colony formation, ARCaPE-RANKL; format: cell-based, human; conditions: addition of OPG
[3] = test system: ARCaPE and ARCaPM cells; assay: EMT marker / RANKL expression by RT-PCR and Western blot and morphology, ARCaP model; format: cell-based, human; parameters: N-cadherin expression in ARCaPE cells (Example 9) / E-cadherin expression in ARCaPE cells (Example 9) / Snail expression in ARCaPE cells (Example 9) / vimentin expression in ARCaPE cells (Example 9): dose or concentration left out as unconfirmed
Method: 4×10^5 ARCaP and PC3 cells were seeded into a 6-well plate and cultured for 48 hrs until they grow to 90% confluence. The RANKL siRNA (50 pmole) and siRNA control (50 pmole) and lipofetamine (2.5 ul) were mixed with 250 ul of OPTI-medium without any FBS, respectively and incubated at RT for 5 minutes. The DNA and lipofetamine were then mixed together and incubated for 20 minutes before adding to the cells in each well. The medium was changed to normal 5% T-medium after 6 h incubation. The cells were incubated at 37° C. for two days before harvesting.
Total of 30 ug of proteins per well from both ARCaPE and ARCaPM cells were run on a Tris-Bis 4-12% gradient polyacrylamide gel (Invitrogen) one and half hours at 150 Volts. The proteins on the gel were then transferred to PVDF membranes using Hoefer semi-dry system. The membranes were incubated with 5% skim milk in PBST (Blocking solution) for 20 min to block non-specific antibody labeling. The RANKL primary antibody was diluted with blocking solution (1:200 and 1:500) and incubated with the membrane for one hour at RT on a rocker or overnight at 4° C. The membrane was washed with PBST (PBS+0.01% TWEEN) three times for a minimum of 5 min each. Secondary rabbit anti-goat antibodies were incubated with the membrane for one hour at RT on a rocker. The membrane was again washed with PBST three times for 5 min each. Chemiluminescent substrate (Western Lightning) was evenly added across the top surface of the membrane, and the membrane was exposed to X-ray films for 30 seconds to 2 minutes depending on the strength of the signals and then developed according to the manufacturer's instructions.
For each reaction, a 50 μl PCR reaction mix containing 5 μl of 10×PCR buffer, 1.5 ul of 50 mM MgCl2, 1 ul of 10 mM dNTP, 1 ul of each forward and reverse primers (RANKL F: […] (SEQ ID NO:1) and RANKL R: […] (SEQ ID NO:2); GAPDH as the positive control), 3 ul cDNA, 37 ul double distilled water, and 0.5 μl of Taq polymerase (Invitrogen) was made. The reaction was first activated at 94° C. for 2 min and run for 36 cycles of 94° C. (30 sec-melting), 60° C. (30 sec-annealing), and 72° C. (60 sec-extension), and lastly incubated at 72° C. for 5 min to amplify the cDNA. A 1% gel electrophoresis was run with 5 μl of 100 by DNA ladder and 10 μl of amplified cDNA of each sample to check the size of the cDNA and also whether it was successfully synthesized under UV light. […]
ARCaPE or ARCaPM cells were seeded into 6-well plate and transiently transfected with flag-tagged RANKL or neo plasmid DNA under the regulation by CMV-promoter, or RANKL siRNA (Santa Cruz Biotechnology, Inc., Santa Cruz, Calif.) with an universal scramble siRNA which serves as the control (Invitrogen, Carlsbad, Calif.). After 48 h of transfection, cells were harvested for western blotting and RT-PCR analyses. For stable transfection, LNCaP cells were first transfected with either flag-tagged RANKL- or neo-control-plasmid cDNA (Sigma-Aldrich, St. Louis, Mo.) in a 6-well plate for 48 h, and the cells were trypsinized and seeded into a 15 cm dish. The cells contain the transfected vector were selected in 400 μg/ml of G418 until individual colonies that contain transfected construct were formed. LNCaP cell colonies expressing flag-tagged RANKL or neo plasmid were picked and the cells were amplified from a 48-well plate to a 10 cm dish in the presence of G418. Stable clones were maintained in 200 μg/ml of G418 and routinely checked for flag-RANKL expression by western blot analysis.
Total RNA from cells was isolated using RNeasy Mini Kit (Qiagen, Valencia, Calif.) according to manufacturer's instructions. […]

[4] = test system: cMet in ARCaPE cells; assay: cMet expression and phosphorylation (Western blot), ARCaPE; format: cell-based, human
[5] = test system: LNCaP and LNCaP-RANKL cells; assay: In vitro migration and invasion assays (transwell), LNCaP model; format: cell-based, human
Method: (§1) Migration and invasion of cancer cells were examined in 24-well plates using either uncoated or collagen I- and growth factor reduced Matrigel (BD Biosciences, Bedford, Mass.)-coated transwells (8 μm pore size), respectively, as previously described. Cells were serum-starved in RPMI 1640 or T-medium (Invitrogen, Carlsbad, Calif.) overnight and dissociated in 10 mM EDTA/HEPES. The lifted cells were washed and counted, and 5×10^4 cells were seeded in 100 μl of serum-free RPMI 1640 or T-medium in the upper chamber of the transwells in the presence or absence of 1 μg/ml OPG and 400 μl of RPMI 1640 or T-medium supplemented with 5% FBS was placed in the lower chamber of the transwells. After 24 h (migration) and 48 h (invasion) of culturing at 37° C., the migrated and invaded cells were fixed with 10% formaldehyde, stained with 0.5% crystal violet, and the cells at the upper side of the membrane of the chamber were removed and quantified.

[6] = test system: cMet transcriptional activity; assay: cMet promoter reporter assay; format: cell-based
[7] = test system: ARCaPE, ARCaPM and ARCaPE-RANKL cells; assay: In vitro migration and invasion assays (transwell), ARCaP model; format: cell-based, human
Method: as §1

[8] = recombinant RANKL 200 and 400, four days

Molecule: osteoprotegerin [OPG]
- induction of cMyc binding to the cMyc site ([1]; exposing to OPG): dampened
- soft agar colony formation (tumorigenicity) of ARCaPE-RANKL cells [2]: attenuated
- RANKL expression in ARCaPM cells ([3]; 1 ug/ml of OPG): down-regulated
- Vimentin in ARCaPE cells (WB) ([3]; RANKL plus OPG): significantly reduced
- N-cad and Vimentin expression in ARCaPE cells (RT-PCR) ([3]; RANKL plus OPG compared to 300 ng/ml RANKL): slightly decreased
- E-cad expression in ARCaPE cells (RT-PCR, WB) ([3]; RANKL plus OPG compared to RANKL): restore
- RANKL-induced EMT and cadherin switch in ARCaPE cells ([3]; addition of OPG): blocked; also recorded: abolished
- RANKL-induced RANKL expression in ARCaPE cells ([3]; addition of OPG): attenuated
- EMT phenotype of ARCaPM cells (morphology, mesenchymal genes, cadherin switch) ([3]; exposure to OPG (1 μg/ml)): reversed
- RANKL- or HGF-induced cMet expression and phosphorylation in ARCaPE cells ([4]; OPG (vs RANKL) or anti-HGF antibody (vs HGF) treatment): abrogated
- increased migration and invasion of LNCaP-RANKL cells ([5]; OPG treatment): antagonized; also recorded: suppressed
- RANKL-induced increase of migration and invasion of LNCaP cells ([5]; presence of OPG): abrogated
- RANKL up-regulated cMet transcriptional activity ([6]; OPG treatment): attenuated
- increased migration and invasion of ARCaPE-RANKL cells ([7]; OPG treatment): suppressed
- migration and invasion of ARCaPM cells ([7]; OPG treatment, 1 μg/ml): antagonized; also recorded: decreased
- RANKL-induced increase of migration and invasion of ARCaPE cells ([7]; presence of OPG): abrogated

B1: RANKL: trimerized recombinant RANKL protein (rRANKL), receptor activator of NF-KB ligand (protein, UniProt O14788 69-317, looked up)
extracellular domain: YFRAQMDPNRISEDGTHCIYRILRLHENADFQDTTLESQDTKLIPDSCRRIKQAFQGAVQKELQHIVGSQHIRAEKAMVDGSWLDLAKRSKLEAQPFAHLTINATDIPSGSHKVSLSSWYHDRGWAKISNMTFSNGKLIVNQDGFYYLYANICFRHHETSGDLATEYLQLMVYVTKTSIKIPSSHTLMKGGSTKYWSGNSEFHFYSINVGGFFKLRSGEEISIEVSNPSLLDPDQDATYFGAFKVRDID
modifications: extracellular domain trimerized
- increase of cMyc binding to the cMyc site ([1]; RANKL-treated LNCaP cells, quantitative real-time PCR): ~11 fold
- E-cadherin expression in ARCaPE cells ([3]; 200 ng/ml recombinant RANKL): down-regulated
- N-cadherin expression in ARCaPE cells ([3]; 200 ng/ml recombinant RANKL): up-regulated
- Snail, vimentin, and RANKL expression in ARCaPE cells ([3]; 200 ng/ml recombinant RANKL): up-regulation
- cell morphology of ARCaPE cells ([3]; 200 ng/ml recombinant RANKL protein, 8-day period): gradually changed their morphology from cobble-stoned clusters to more dispersed and fibroblastic-like appearance
- Vimentin in ARCaPE cells (WB) ([3]; RANKL alone): only slightly increased
- RANKL expression at mRNA and protein levels in ARCaPE cells ([3]; RANKL treatment): up-regulated
- N-cadherin expression in ARCaPE cells (Example 9) [3, 8]: slightly increased
- Snail expression in ARCaPE cells (Example 9) [3, 8]: no effect
- vimentin expression in ARCaPE cells (Example 9) [3, 8]: increases
- E-cadherin expression in ARCaPE cells (Example 9) ([3]; recombinant RANKL 200 and 400, four days, RNA and protein level): decrease
- cMet expression and phosphorylated level of cMet in ARCaPE cells ([4]; exogeneous RANKL or HGF treatment): significantly increased
- migration and invasion of LNCaP cells ([5]; recombinant RANKL treatment): increased
- cMet transcriptional activity ([6]; RANKL treatment): up-regulated
- migration and invasion of ARCaPE cells ([7]; recombinant RANKL treatment): increased
